From ChEMBL document CHEMBL5236589, “Design and Structural Optimization of Orally Bioavailable SOS1 Inhibitors for the Treatment of KRAS-Driven Carcinoma” (J Med Chem, 2022) come the findings set out here.

This test can be described thus: Inhibition of SOS1/KRAS G13D mutant protein-protein interaction in human DLD-1 cells assessed as ERK1/2 phosphorylation measured after 1 hr by homogeneous time-resolved fluorescence (HTRF) method. The class given is cell-based. To be noted: DLD-1, 1 h.
Consider `Cc1nc(N[C@H](C)c2cccc(C(F)F)c2F)c2cc3c(cc2n1)OC[C@H]1CN(CC(=O)N(C)C)CCN31`, for which the IC50 (in general, the midpoint of a concentration-inhibition curve) came out at 295 nM.
For `Cc1nc(N[C@H](C)c2cccc(C(F)F)c2F)c2cc3c(cc2n1)OC[C@H]1CN(C2CN(C)C2)CCN31` the value was 166 nM; for `CCNC(=O)N1CCN2c3cc4c(N[C@H](C)c5cccc(C(F)F)c5F)nc(C)nc4cc3OC[C@H]2C1`, 32 nM.
For `Cc1nc(N[C@H](C)c2cccc(C(F)F)c2F)c2cc3c(cc2n1)OC[C@H]1CN(C2CCOCC2)CCN31` the value was 57 nM; for `Cc1nc(N[C@H](C)c2cccc(C(F)F)c2F)c2cc3c(cc2n1)OC[C@H]1CN(c2ncc(F)cn2)CCN31`, 99 nM.
For `COC(=O)N1CCN2c3cc4c(N[C@H](C)c5cccc(C(F)F)c5F)nc(C)nc4cc3OC[C@H]2C1` the value was 22 nM; for `Cc1nc(N[C@H](C)c2cccc(C(F)F)c2F)c2cc3c(cc2n1)OC[C@H]1CN(S(C)(=O)=O)CCN31`, 79 nM; for `Cc1nc(N[C@H](C)c2cccc(C(F)F)c2F)c2cc3c(cc2n1)OC[C@H]1CN(C(=O)N2CCN(C)CC2)CCN31`, 99 nM.
For `Cc1nc(N[C@H](C)c2cccc(C(F)F)c2F)c2cc3c(cc2n1)OC[C@H]1CN(C(=O)C2CC2)CCN31`, the IC50 came to 367 nM.
For `Cc1nc(N[C@H](C)c2cccc(C(F)F)c2F)c2cc3c(cc2n1)OC[C@H]1CN(C(=O)c2ccn[nH]2)CCN31` the value was 376 nM; for `Cc1nc(N[C@H](C)c2cccc(C(F)F)c2F)c2cc3c(cc2n1)OC[C@H]1CN(C(=O)c2ccnn2C)CCN31`, 691 nM.
For `Cc1nc(N[C@H](C)c2cccc(C(F)F)c2F)c2cc3c(cc2n1)OC[C@H]1CN(C2COC2)CCN31` the value was 96 nM.
For `Cc1nc(N[C@H](C)c2cccc(C(F)F)c2F)c2cc3c(cc2n1)OC[C@H]1CN(C(C)C)CCN31` the value was 168 nM.
Regarding `Cc1nc(N[C@H](C)c2cccc(C(F)F)c2F)c2cc3c(cc2n1)OC[C@H]1CN(C(=O)[C@@H]2C[C@@H]2F)CCN31`, the IC50 is 22 nM.
On to `Cc1nc(N[C@H](C)c2cccc(C(F)F)c2F)c2cc3c(cc2n1)OC[C@H]1CN(C(=O)C2CCN(C)CC2)CCN31`, for which the IC50 turned out to be 98 nM.
For `Cc1nc(N[C@H](C)c2cccc(C(F)F)c2F)c2cc3c(cc2n1)OC[C@H]1CN(C(=O)C2CC2(F)F)CCN31` (some centres not stated) the value was 26 nM.
`Cc1nc(N[C@H](C)c2cccc(C(F)F)c2F)c2cc3c(cc2n1)OC[C@H]1CN(C)CCN31`: the IC50 came to 86 nM.
For `Cc1nc(N[C@H](C)c2cccc(C(F)F)c2F)c2cc3c(cc2n1)OC[C@H]1CN(C(=O)C2C(C)(C)C2(C)C)CCN31` the value was 9 nM; for `Cc1nc(N[C@H](C)c2cccc(C(F)F)c2F)c2cc3c(cc2n1)OC[C@H]1CN(C(=O)C2(C)CC2)CCN31`, over 1000 nM; for `Cc1nc(N[C@H](C)c2cccc(C(F)F)c2F)c2cc3c(cc2n1)OC[C@H]1CN(C(=O)[C@@H]2CCCN2C)CCN31`, 104 nM.
As for `COCCN1CCN2c3cc4c(N[C@H](C)c5cccc(C(F)F)c5F)nc(C)nc4cc3OC[C@H]2C1`, the IC50 stood at 97 nM.
`Cc1nc(N[C@H](C)c2cccc(C(F)F)c2F)c2cc3c(cc2n1)OC[C@H]1CN(C(=O)C(C)(C)C)CCN31`: the IC50 came to 25 nM.
